Columns and labels:
[1] = tested on: MCF7; assay: Cytotoxicity against human MCF7 cells assessed as inhibition rate at 5 uM measured after […] hrs by CCK-8 assay relative to control; format: functional
[2] = biological target: ATP-dependent translocase ABCB1 (Homo sapiens, UniProt P08183); assay: Inhibition of P-gp-mediated multidrug resistance in doxorubicin-resistant human MCF7/ADR cells assessed as fold reversal of resistance by measuring doxorubicin IC50 incubated for 48 hrs by CCK-8 assay relative to doxorubicin IC50 in absence of compound; format: cell-based; settings: nci-adr-res
[3] = tested on: NCI/ADR-RES; assay: Cytotoxicity against doxorubicin-resistant human MCF-7/ADR cells assessed as inhibition rate at 5 uM measured after […] hrs by CCK-8 assay relative to control; format: functional

ATP-dependent translocase ABCB1, sequence (P08183 whole entry): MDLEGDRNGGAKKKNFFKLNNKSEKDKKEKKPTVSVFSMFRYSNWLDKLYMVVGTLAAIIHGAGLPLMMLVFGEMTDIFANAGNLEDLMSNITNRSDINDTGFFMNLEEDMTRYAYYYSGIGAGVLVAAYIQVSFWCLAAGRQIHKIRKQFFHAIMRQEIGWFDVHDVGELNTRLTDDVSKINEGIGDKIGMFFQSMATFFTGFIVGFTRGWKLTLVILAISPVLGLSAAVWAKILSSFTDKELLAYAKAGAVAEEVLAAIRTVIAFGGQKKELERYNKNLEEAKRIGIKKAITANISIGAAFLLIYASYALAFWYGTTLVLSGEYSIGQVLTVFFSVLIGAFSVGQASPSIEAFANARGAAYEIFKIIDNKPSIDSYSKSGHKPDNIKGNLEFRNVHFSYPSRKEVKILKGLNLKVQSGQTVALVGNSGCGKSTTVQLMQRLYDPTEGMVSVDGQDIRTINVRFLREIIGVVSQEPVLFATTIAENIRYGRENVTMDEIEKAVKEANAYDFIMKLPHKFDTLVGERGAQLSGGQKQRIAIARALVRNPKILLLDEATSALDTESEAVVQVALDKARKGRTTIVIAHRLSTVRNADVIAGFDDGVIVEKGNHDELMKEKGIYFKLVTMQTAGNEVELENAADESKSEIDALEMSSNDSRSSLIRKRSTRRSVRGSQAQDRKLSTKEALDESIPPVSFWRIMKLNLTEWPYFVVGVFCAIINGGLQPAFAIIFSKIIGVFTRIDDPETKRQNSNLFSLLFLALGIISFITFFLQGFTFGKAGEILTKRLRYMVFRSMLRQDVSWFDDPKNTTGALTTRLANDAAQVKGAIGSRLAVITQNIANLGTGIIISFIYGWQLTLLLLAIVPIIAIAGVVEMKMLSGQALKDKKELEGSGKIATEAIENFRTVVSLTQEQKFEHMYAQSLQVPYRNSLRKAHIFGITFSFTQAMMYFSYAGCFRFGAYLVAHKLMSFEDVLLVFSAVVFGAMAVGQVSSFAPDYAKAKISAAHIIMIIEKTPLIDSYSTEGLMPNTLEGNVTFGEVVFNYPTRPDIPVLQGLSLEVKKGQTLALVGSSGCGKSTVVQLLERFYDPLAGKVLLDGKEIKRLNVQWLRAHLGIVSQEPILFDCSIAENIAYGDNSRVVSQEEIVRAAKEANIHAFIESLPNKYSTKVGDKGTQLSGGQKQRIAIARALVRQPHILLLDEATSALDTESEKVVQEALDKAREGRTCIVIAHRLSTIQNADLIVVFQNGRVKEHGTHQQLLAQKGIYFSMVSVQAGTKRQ

COc1cc2c(cc1OC)CN(C(=O)c1cc3cc(-c4ccc(NC(=O)c5ccc(Cl)cc5)cc4)ccc3n1Cc1cccc(F)c1)CC2
inhibition at 5 µM [1]: 1.7%
fold change (FC) [2]: 37.6
inhibition at 5 µM [3]: -2.6%

COc1ccc(OC)c(-c2ccc3[nH]c(C(=O)N4CCc5cc(OC)c(OC)cc5C4)cc3c2)c1
fold change (FC) [2]: 108.7

COc1ccc(C(=O)Nc2ccc(-c3ccc4[nH]c(C(=O)N5CCc6cc(OC)c(OC)cc6C5)cc4c3)cc2)cc1
inhibition at 5 µM [1]: 19.6%
fold change (FC) [2]: 78
inhibition at 5 µM [3]: 23.9%

COc1cc2c(cc1OC)CN(C(=O)c1cc3cc(-c4cccc(C)c4)ccc3[nH]1)CC2
fold change (FC) [2]: 58.1

COc1cc2c(cc1OC)CN(C(=O)c1cc3cc(-c4ccccc4Cl)ccc3[nH]1)CC2
fold change (FC) [2]: 52.8

COc1cc2c(cc1OC)CN(C(=O)c1cc3cc(-c4ccc(NC(=O)c5ccc(Cl)cc5)cc4)ccc3n1Cc1ccccc1Cl)CC2
inhibition at 5 µM [1]: 13.4%
fold change (FC) [2]: 30.3
inhibition at 5 µM [3]: 18.6%

COc1cc2c(cc1OC)CN(C(=O)c1cc3cc(-c4ccccc4C)ccc3[nH]1)CC2
fold change (FC) [2]: 26.3

COc1ccc(-c2ccc3[nH]c(C(=O)N4CCc5cc(OC)c(OC)cc5C4)cc3c2)c(OC)c1
fold change (FC) [2]: 112.7

COc1cc2c(cc1OC)CN(C(=O)c1cc3cc(-c4ccc(N)cc4)ccc3[nH]1)CC2
fold change (FC) [2]: 34.9

COc1cc2c(cc1OC)CN(C(=O)c1cc3cc(-c4cccc(Cl)c4)ccc3[nH]1)CC2
fold change (FC) [2]: 33.4

COc1cc2c(cc1OC)CN(C(=O)c1cc3cc(-c4ccc(Cl)cc4)ccc3[nH]1)CC2
fold change (FC) [2]: 100.4

COc1cc2c(cc1OC)CN(C(=O)c1cc3cc(-c4ccc(OC(F)(F)F)cc4)ccc3[nH]1)CC2
fold change (FC) [2]: 99.1

COc1cc2c(cc1OC)CN(C(=O)c1cc3cc(-c4ccc(NC(=O)c5ccc(Cl)cc5)cc4)ccc3n1Cc1cccc(C(F)(F)F)c1)CC2
inhibition at 5 µM [1]: 8.5%
fold change (FC) [2]: 39.9
inhibition at 5 µM [3]: 6.3%

COc1cc2c(cc1OC)CN(C(=O)c1cc3cc(-c4ccc(NC(=O)c5ccccc5Cl)cc4)ccc3[nH]1)CC2
inhibition at 5 µM [1]: 12.7%
fold change (FC) [2]: 241.9
inhibition at 5 µM [3]: 12.4%

COc1cc2c(cc1OC)CN(C(=O)c1cc3cc(-c4ccc(NC(=O)c5ccc(Cl)cc5)cc4)ccc3n1Cc1ccccc1F)CC2
inhibition at 5 µM [1]: 5.3%
fold change (FC) [2]: 92.1
inhibition at 5 µM [3]: 14.3%

CCOc1ccc(C(=O)Nc2ccc(-c3ccc4[nH]c(C(=O)N5CCc6cc(OC)c(OC)cc6C5)cc4c3)cc2)cc1
inhibition at 5 µM [1]: 15.4%
fold change (FC) [2]: 333
inhibition at 5 µM [3]: 7.7%

COc1cc2c(cc1OC)CN(C(=O)c1cc3cc(-c4ccc(NC(=O)c5ccc(Cl)cc5)cc4)ccc3n1Cc1ccc(C)cc1)CC2
inhibition at 5 µM [1]: 3.7%
fold change (FC) [2]: 36.6
inhibition at 5 µM [3]: 2.5%

CCCCOc1ccc(-c2ccc3[nH]c(C(=O)N4CCc5cc(OC)c(OC)cc5C4)cc3c2)cc1
fold change (FC) [2]: 18.3

COc1cc2c(cc1OC)CN(C(=O)c1cc3cc(-c4ccc(NC(=O)c5ccc(F)cc5)cc4)ccc3[nH]1)CC2
inhibition at 5 µM [1]: 52.8%
fold change (FC) [2]: 3628.7
inhibition at 5 µM [3]: 50.4%

COc1ccc(C(=O)Nc2ccc(-c3ccc4[nH]c(C(=O)N5CCc6cc(OC)c(OC)cc6C5)cc4c3)cc2)cc1OC
inhibition at 5 µM [1]: 20.6%
fold change (FC) [2]: 486.9
inhibition at 5 µM [3]: 37.2%

COc1cc(Cn2c(C(=O)N3CCc4cc(OC)c(OC)cc4C3)cc3cc(-c4ccc(NC(=O)c5ccc(Cl)cc5)cc4)ccc32)cc(OC)c1
inhibition at 5 µM [1]: 3%
fold change (FC) [2]: 41.5
inhibition at 5 µM [3]: 11.2%

CCCOc1ccc(-c2ccc3[nH]c(C(=O)N4CCc5cc(OC)c(OC)cc5C4)cc3c2)cc1
fold change (FC) [2]: 16.5

COc1cc2c(cc1OC)CN(C(=O)c1cc3cc(-c4ccc(NC(=O)c5ccc(Cl)cc5)cc4)ccc3n1Cc1cccc(Cl)c1)CC2
inhibition at 5 µM [1]: 1.3%
fold change (FC) [2]: 27.5
inhibition at 5 µM [3]: 0.1%

COc1cc2c(cc1OC)CN(C(=O)c1cc3cc(-c4ccc(F)cc4)ccc3[nH]1)CC2
fold change (FC) [2]: 51.3

COc1cc2c(cc1OC)CN(C(=O)c1cc3cc(-c4ccc(OC(C)C)cc4)ccc3[nH]1)CC2
fold change (FC) [2]: 24

COc1cc2c(cc1OC)CN(C(=O)c1cc3cc(-c4ccc(NC(=O)c5ccc(Cl)cc5)cc4)ccc3n1Cc1ccc(C(F)(F)F)cc1)CC2
inhibition at 5 µM [1]: 15.5%
fold change (FC) [2]: 29
inhibition at 5 µM [3]: 12.6%

COc1cc2c(cc1OC)CN(C(=O)c1cc3cc(-c4ccc(NC(=O)c5ccc(Cl)cc5)cc4)ccc3n1Cc1cccc(Br)c1)CC2
inhibition at 5 µM [1]: 7.9%
fold change (FC) [2]: 118.6
inhibition at 5 µM [3]: 21.6%

COc1cc2c(cc1OC)CN(C(=O)c1cc3cc(-c4cc(OC)c(OC)c(OC)c4)ccc3[nH]1)CC2
fold change (FC) [2]: 137.6

COc1cc2c(cc1OC)CN(C(=O)c1cc3cc(-c4ccc(NC(=O)c5ccc(Cl)cc5)cc4)ccc3n1Cc1ccccc1C(F)(F)F)CC2
inhibition at 5 µM [1]: 19.3%
fold change (FC) [2]: 10.4
inhibition at 5 µM [3]: 8.6%

COc1cc2c(cc1OC)CN(C(=O)c1cc3cc(-c4ccccc4F)ccc3[nH]1)CC2
fold change (FC) [2]: 17

COc1cc2c(cc1OC)CN(C(=O)c1cc3cc(-c4ccccc4)ccc3[nH]1)CC2
fold change (FC) [2]: 10

COc1cc2c(cc1OC)CN(C(=O)c1cc3cc(-c4ccc(NC(=O)c5ccc(OC(C)(C)C)cc5)cc4)ccc3[nH]1)CC2
inhibition at 5 µM [1]: 15.9%
fold change (FC) [2]: 96.6
inhibition at 5 µM [3]: 8.8%

COc1cccc(C(=O)Nc2ccc(-c3ccc4[nH]c(C(=O)N5CCc6cc(OC)c(OC)cc6C5)cc4c3)cc2)c1
inhibition at 5 µM [1]: 11.4%
fold change (FC) [2]: 325.9
inhibition at 5 µM [3]: 18.9%

COc1cc2c(cc1OC)CN(C(=O)c1cc3cc(-c4ccc(NC(=O)c5ccc(Cl)cc5)cc4)ccc3n1Cc1cc(C(F)(F)F)cc(C(F)(F)F)c1)CC2
inhibition at 5 µM [1]: 3.8%
fold change (FC) [2]: 40.9
inhibition at 5 µM [3]: 1.9%

COc1cc2c(cc1OC)CN(C(=O)c1cc3cc(-c4ccc(NC(=O)c5ccccc5)cc4)ccc3[nH]1)CC2
inhibition at 5 µM [1]: 15.5%
fold change (FC) [2]: 146.3
inhibition at 5 µM [3]: 11%

COc1cc2c(cc1OC)CN(C(=O)c1cc3cc(-c4ccc(NC(=O)c5ccc(OC(F)(F)F)cc5)cc4)ccc3[nH]1)CC2
inhibition at 5 µM [1]: 46.7%
inhibition at 5 µM [3]: 53.8%

COc1ccc(-c2ccc3[nH]c(C(=O)N4CCc5cc(OC)c(OC)cc5C4)cc3c2)cc1OC
fold change (FC) [2]: 56.2

COc1cc2c(cc1OC)CN(C(=O)c1cc3cc(-c4ccc(NC(=O)c5ccc(Oc6ccccc6)cc5)cc4)ccc3[nH]1)CC2
inhibition at 5 µM [1]: 19%
fold change (FC) [2]: 23
inhibition at 5 µM [3]: 15.5%

COc1cc2c(cc1OC)CN(C(=O)c1cc3cc(-c4ccc([N+](=O)[O-])cc4)ccc3[nH]1)CC2
fold change (FC) [2]: 55.8

COc1cc2c(cc1OC)CN(C(=O)c1cc3cc(-c4ccc(C)cc4)ccc3[nH]1)CC2
fold change (FC) [2]: 41.4

COc1cccc2c1C(=O)c1c(O)c3c(c(O)c1C2=O)C[C@@](O)(C(=O)CO)C[C@@H]3O[C@H]1C[C@H](N)[C@H](O)[C@H](C)O1 [DOXORUBICIN]
fold change (FC) [2]: 1

COc1cc2c(cc1OC)CN(C(=O)c1cc3cc(-c4ccccc4OC)ccc3[nH]1)CC2
fold change (FC) [2]: 15.1

COc1cc(OC)cc(-c2ccc3[nH]c(C(=O)N4CCc5cc(OC)c(OC)cc5C4)cc3c2)c1
fold change (FC) [2]: 86.4

COc1cc2c(cc1OC)CN(C(=O)c1cc3cc(-c4ccc(NC(=O)c5ccc(Cl)cc5)cc4)ccc3n1Cc1ccccc1Br)CC2
inhibition at 5 µM [1]: 18.2%
fold change (FC) [2]: 36.1
inhibition at 5 µM [3]: 17.1%

COc1cc2c(cc1OC)CN(C(=O)c1cc3cc(-c4ccc(NC(=O)c5cccc(F)c5)cc4)ccc3[nH]1)CC2
inhibition at 5 µM [1]: 31.5%
fold change (FC) [2]: 1021.3
inhibition at 5 µM [3]: 34.1%

COc1cc2c(cc1OC)CN(C(=O)c1cc3cc(-c4cccc([N+](=O)[O-])c4)ccc3[nH]1)CC2
fold change (FC) [2]: 76.3

COc1cccc(-c2ccc3[nH]c(C(=O)N4CCc5cc(OC)c(OC)cc5C4)cc3c2)c1
fold change (FC) [2]: 204.4

CCOc1ccc(-c2ccc3[nH]c(C(=O)N4CCc5cc(OC)c(OC)cc5C4)cc3c2)cc1
fold change (FC) [2]: 33.6

COc1cc2c(cc1OC)CN(C(=O)c1cc3cc(-c4ccc(NC(=O)c5ccccc5OC)cc4)ccc3[nH]1)CC2
inhibition at 5 µM [1]: 20.7%
fold change (FC) [2]: 16.1
inhibition at 5 µM [3]: -2.9%

COc1cc2c(cc1OC)CN(C(=O)c1cc3cc(-c4ccccc4[N+](=O)[O-])ccc3[nH]1)CC2
fold change (FC) [2]: 41.9

COc1cc2c(cc1OC)CN(C(=O)c1cc3cc(-c4ccc(NC(=O)c5ccc(C(F)(F)F)cc5)cc4)ccc3[nH]1)CC2
inhibition at 5 µM [1]: 11.8%
fold change (FC) [2]: 1717
inhibition at 5 µM [3]: 22%

COc1cc2c(cc1OC)CN(C(=O)c1cc3cc(-c4cccc(F)c4)ccc3[nH]1)CC2
fold change (FC) [2]: 19.9

COc1cc2c(cc1OC)CN(C(=O)c1cc3cc(-c4ccc(Oc5ccccc5)cc4)ccc3[nH]1)CC2
fold change (FC) [2]: 30

C/C=C/C[C@@H](C)[C@@H](O)[C@H]1C(=O)N[C@@H](CC)C(=O)N(C)CC(=O)N(C)[C@@H](CC(C)C)C(=O)N[C@@H](C(C)C)C(=O)N(C)[C@@H](CC(C)C)C(=O)N[C@@H](C)C(=O)N[C@H](C)C(=O)N(C)[C@@H](CC(C)C)C(=O)N(C)[C@@H](CC(C)C)C(=O)N(C)[C@@H](C(C)C)C(=O)N1C [CYCLOSPORINE]
inhibition at 5 µM [3]: 24.5%

COc1ccc(CCN(C)CCCC(C#N)(c2ccc(OC)c(OC)c2)C(C)C)cc1OC (centres undefined)
inhibition at 5 µM [1]: 6.9%
inhibition at 5 µM [3]: 12.2%

COc1cc2c(cc1OC)CN(C(=O)c1cc3cc(-c4ccc5c(c4)OCO5)ccc3[nH]1)CC2
fold change (FC) [2]: 33.4

COc1cc2c(cc1OC)CN(C(=O)c1cc3cc(-c4ccc(OC(C)(C)C)cc4)ccc3[nH]1)CC2
fold change (FC) [2]: 27.5

COc1cc2c(cc1OC)CN(C(=O)c1cc3cc(-c4cccc(OC)c4OC)ccc3[nH]1)CC2
fold change (FC) [2]: 88.3

COc1ccc(-c2ccc3[nH]c(C(=O)N4CCc5cc(OC)c(OC)cc5C4)cc3c2)cc1
fold change (FC) [2]: 46.4

Source: ChEMBL document CHEMBL5380848, “Novel Benzo Five-Membered Heterocycle Derivatives as P-Glycoprotein Inhibitors: Design, Synthesis, Molecular Docking, and Anti-Multidrug Resistance Activity” (J Med Chem, 2023)
